Laboratory results as given in patent publication US10696615B2, “Prenylated hydroxystilbenes” (The University of Sydney, priority 2011, dated 2020).

How the values were obtained:
[1] = tested on: MDA-MB-468; assay: NCI in vitro cancer screen, Breast Cancer; assay type: cell-based, human; settings: MDA-MB-468, unit not printed (M)
[2] = tested on: KM12; assay: NCI in vitro cancer screen, Colon Cancer; assay type: cell-based, human; settings: KM12, unit not printed (M)
[3] = tested on: human tumor cell lines; assay: NCI in vitro cancer screen, whole panel (summary statements); assay type: cell-based; settings: result in words
[4] = tested on: NCI-H226; assay: NCI in vitro cancer screen, Non-Small Cell Lung Cancer; assay type: cell-based, human; settings: NCI-H226, unit not printed (M)
[5] = tested on: HOP-92; assay: as above; assay type: cell-based, human; settings: HOP (second HOP line), unit not printed (M)
[6] = tested on: HOP-62; assay: as above; assay type: cell-based, human; settings: HOP (first HOP line), unit not printed (M)
[7] = tested on: SW-620; assay: NCI in vitro cancer screen, Colon Cancer; assay type: cell-based, human; settings: SW-620, unit not printed (M)
[8] = tested on: U251; assay: NCI in vitro cancer screen, CNS Cancer; assay type: cell-based, human; settings: U251, unit not printed (M)
[9] = tested on: TK-10; assay: NCI in vitro cancer screen, Renal Cancer; assay type: cell-based, human; settings: TK-10, unit not printed (M)
[10] = tested on: MCF7; assay: NCI in vitro cancer screen, Breast Cancer; assay type: cell-based, human; settings: MCF7, unit not printed (M)
[11] = tested on: CAKI-1; assay: NCI in vitro cancer screen, Renal Cancer; assay type: cell-based, human; settings: CAKI-1, unit not printed (M)
[12] = tested on: OVCAR-3; assay: NCI in vitro cancer screen, Ovarian Cancer; assay type: cell-based, human; settings: OVCAR-3, unit not printed (M)
[13] = tested on: HS 578T; assay: NCI in vitro cancer screen, Breast Cancer; assay type: cell-based, human; settings: unit not printed (M)
[14] = tested on: SF-539; assay: NCI in vitro cancer screen, CNS Cancer; assay type: cell-based; settings: SF-539, unit not printed (M)
[15] = tested on: OVCAR-5; assay: NCI in vitro cancer screen, Ovarian Cancer; assay type: cell-based, human; settings: OVCAR-5, unit not printed (M)
[16] = tested on: UACC-257; assay: NCI in vitro cancer screen, Melanoma; assay type: cell-based, human; settings: UACC-257, unit not printed (M)
[17] = tested on: SNB-19; assay: NCI in vitro cancer screen, CNS Cancer; assay type: cell-based, human; settings: SNB-19, unit not printed (M)
[18] = tested on: NCI-H23; assay: NCI in vitro cancer screen, Non-Small Cell Lung Cancer; assay type: cell-based, human; settings: NCI-H23, unit not printed (M)
[19] = tested on: EKVX; assay: as above; assay type: cell-based, human; settings: unit not printed (M)
[20] = tested on: SK-MEL-5; assay: NCI in vitro cancer screen, Melanoma; assay type: cell-based, human; settings: SK-MEL-5, unit not printed (M)
[21] = tested on: HT29; assay: NCI in vitro cancer screen, Colon Cancer; assay type: cell-based, human; settings: HT29, unit not printed (M)
[22] = tested on: SF-268; assay: NCI in vitro cancer screen, CNS Cancer; assay type: cell-based, human; settings: SF-268, unit not printed (M)
[23] = tested on: HCT-116; assay: NCI in vitro cancer screen, Colon Cancer; assay type: cell-based, human; settings: HCT-116, unit not printed (M)
[24] = tested on: IGROV1; assay: NCI in vitro cancer screen, Ovarian Cancer; assay type: cell-based, human; settings: IGROV1, unit not printed (M)
[25] = tested on: SK-MEL-28; assay: NCI in vitro cancer screen, Melanoma; assay type: cell-based, human; settings: SK-MEL-28, unit not printed (M)
[26] = tested on: DU-145; assay: NCI in vitro cancer screen, Prostate Cancer; assay type: cell-based, human; settings: DU-145, unit not printed (M)
[27] = tested on: OVCAR-4; assay: NCI in vitro cancer screen, Ovarian Cancer; assay type: cell-based, human; settings: OVCAR-4, unit not printed (M)
[28] = tested on: OVCAR-8; assay: NCI in vitro cancer screen, Ovarian Cancer; assay type: cell-based, human; settings: OVCAR-8, unit not printed (M)
[29] = Homo sapiens, read-out: LC50 (the source's name)

Q: Which GI50 ([1]; Homo sapiens) does the source give for `COc1cc(/C=C/c2cc(O)cc(O)c2CC=C(C)C)ccc1O` [USYDS10, (E)-2-(3-methyl-2-buten-1-yl)-3,4′,5-trihydroxy-3′-methoxystilbene] here?
A: Its GI50 is 0.373 µM.

Q: What about the CC50 [1, 29] of the same molecule?
A: Its CC50 is 44.9 µM.

Q: And the TGI [1]?
A: Its TGI is 1.44E−5.

Q: What about the GI50 ([2]; Homo sapiens) of the same molecule?
A: The GI50 was 0.497 µM.

Q: And the CC50 [2, 29]?
A: The CC50 was 85.8 µM.

Q: And the TGI [2]?
A: Its TGI is 1.53E−5.

Q: What about the “inhibition of cancerous cell growth” value [3] of the same molecule?
A: The value was “structure dependent inhibition of cancerous cell growth”.

Q: And the GI50 ([4]; Homo sapiens)?
A: Its GI50 is 5.35 µM.

Q: What about the LC50 (50% lethal concentration) ([4]; Homo sapiens) of the same molecule?
A: The LC50 (50% lethal concentration) was over 100 µM.

Q: And the TGI [4]?
A: The TGI was 3.50E−5.

Q: What about the TGI [5] of the same molecule?
A: Its TGI is 2.63E−5.

Q: What about the GI50 ([5]; Homo sapiens, HOP-92) of the same molecule?
A: Its GI50 is 0.398 µM.

Q: And the CC50 ([5]; Homo sapiens, HOP-92, read-out: LC50 (the source's name))?
A: The CC50 was 93.2 µM.

Q: What about the TGI [6] of the same molecule?
A: The TGI was 1.77E−5.

Q: What about the GI50 ([6]; Homo sapiens, HOP-62) of the same molecule?
A: The GI50 was 0.581 µM.

Q: And the CC50 ([6]; Homo sapiens, HOP-62, read-out: LC50 (the source's name))?
A: The CC50 was 42.3 µM.

Q: What about the GI50 ([7]; Homo sapiens) of the same molecule?
A: The GI50 was 0.362 µM.

Q: And the CC50 [7, 29]?
A: Its CC50 is 85.5 µM.

Q: And the TGI [7]?
A: The TGI was 2.15E−5.

Q: What about the GI50 ([8]; Homo sapiens, U-251) of the same molecule?
A: Its GI50 is 0.419 µM.

Q: What about the CC50 ([8]; Homo sapiens, U-251, read-out: LC50 (the source's name)) of the same molecule?
A: The CC50 was 78.8 µM.

Q: What about the TGI [8] of the same molecule?
A: Its TGI is 1.62E−5.

Q: And the GI50 ([9]; Homo sapiens)?
A: The GI50 was 9.55 µM.

Q: What about the LC50 ([9]; Homo sapiens) of the same molecule?
A: The LC50 was over 100 µM.

Q: What about the TGI [9] of the same molecule?
A: Its TGI is 5.15E−5.

Q: And the GI50 ([10]; Homo sapiens)?
A: The GI50 was 0.332 µM.

Q: What about the CC50 [10, 29] of the same molecule?
A: Its CC50 is 50.6 µM.

Q: And the TGI [10]?
A: Its TGI is 1.30E−5.

Q: And the TGI [11]?
A: The TGI was 6.68E−5.

Q: What about the GI50 ([11]; Homo sapiens) of the same molecule?
A: The GI50 was 0.539 µM.

Q: And the CC50 [11, 29]?
A: The CC50 was over 100 µM.

Q: And the GI50 ([12]; Homo sapiens)?
A: The GI50 was 0.372 µM.

Q: What about the CC50 [12, 29] of the same molecule?
A: Its CC50 is over 100 µM.

Q: And the TGI [12]?
A: Its TGI is 2.03E−5.

Q: And the GI50 ([13]; Homo sapiens)?
A: Its GI50 is 0.292 µM.

Q: What about the CC50 [13, 29] of the same molecule?
A: The CC50 was over 100 µM.

Q: What about the TGI [13] of the same molecule?
A: The TGI was 2.60E−5.

Q: What about the GI50 ([14]; Homo sapiens) of the same molecule?
A: Its GI50 is 0.376 µM.

Q: And the CC50 [14, 29]?
A: The CC50 was 41.7 µM.

Q: And the TGI [14]?
A: Its TGI is 1.29E−5.

Q: And the GI50 ([15]; Homo sapiens)?
A: The GI50 was 8.92 µM.

Q: And the CC50 [15, 29]?
A: Its CC50 is 83.1 µM.

Q: What about the TGI [15] of the same molecule?
A: The TGI was 2.80E−5.

Q: And the GI50 ([16]; Homo sapiens)?
A: The GI50 was 11.7 µM.

Q: What about the CC50 [16, 29] of the same molecule?
A: Its CC50 is 73.7 µM.

Q: What about the TGI [16] of the same molecule?
A: The TGI was 2.94E−5.

Q: And the GI50 ([17]; Homo sapiens)?
A: The GI50 was 0.613 µM.

Q: And the CC50 [17, 29]?
A: Its CC50 is over 100 µM.

Q: And the TGI [17]?
A: Its TGI is 2.28E−5.

Q: And the GI50 ([18]; Homo sapiens)?
A: The GI50 was 0.38 µM.

Q: And the LC50 ([18]; Homo sapiens)?
A: Its LC50 is 78.3 µM.

Q: What about the TGI [18] of the same molecule?
A: Its TGI is 1.52E−5.

Q: What about the GI50 ([19]; Homo sapiens) of the same molecule?
A: Its GI50 is 12.2 µM.

Q: And the CC50 [19, 29]?
A: Its CC50 is over 100 µM.

Q: And the TGI [19]?
A: Its TGI is 7.34E−5.

Q: What about the GI50 ([20]; Homo sapiens) of the same molecule?
A: Its GI50 is 0.291 µM.

Q: And the CC50 [20, 29]?
A: The CC50 was 36 µM.

Q: And the TGI [20]?
A: Its TGI is 1.27E−5.

Q: What about the TGI [21] of the same molecule?
A: Its TGI is 2.13E−5.

Q: And the GI50 ([21]; Homo sapiens, HT-29)?
A: Its GI50 is 5.72 µM.

Q: What about the CC50 ([21]; Homo sapiens, HT-29, read-out: LC50 (the source's name)) of the same molecule?
A: Its CC50 is 69 µM.

Q: And the GI50 ([22]; Homo sapiens)?
A: The GI50 was 1.4 µM.

Q: What about the CC50 [22, 29] of the same molecule?
A: The CC50 was over 100 µM.

Q: And the TGI [22]?
A: The TGI was 4.96E−5.

Q: What about the TGI [23] of the same molecule?
A: The TGI was 1.30E−5.

Q: And the GI50 ([23]; Homo sapiens)?
A: Its GI50 is 0.48 µM.

Q: What about the LC50 (concentration killing 50% of cells) ([23]; Homo sapiens) of the same molecule?
A: The LC50 (concentration killing 50% of cells) was 42.7 µM.

Q: What about the GI50 ([24]; Homo sapiens, IGROV-1) of the same molecule?
A: The GI50 was 2.03 µM.

Q: What about the CC50 ([24]; Homo sapiens, IGROV-1, read-out: LC50 (the source's name)) of the same molecule?
A: Its CC50 is over 100 µM.

Q: And the TGI [24]?
A: The TGI was over 1.00E−4.

Q: What about the GI50 ([25]; Homo sapiens) of the same molecule?
A: The GI50 was 0.572 µM.

Q: What about the LC50 ([25]; Homo sapiens) of the same molecule?
A: The LC50 was 43 µM.

Q: What about the TGI [25] of the same molecule?
A: The TGI was 1.69E−5.

Q: And the TGI [26]?
A: Its TGI is 2.05E−5.

Q: What about the GI50 ([26]; Homo sapiens) of the same molecule?
A: Its GI50 is 0.442 µM.

Q: And the CC50 [26, 29]?
A: The CC50 was over 100 µM.

Q: What about the GI50 ([27]; Homo sapiens) of the same molecule?
A: The GI50 was 1.03 µM.

Q: What about the CC50 [27, 29] of the same molecule?
A: Its CC50 is 57.7 µM.

Q: And the TGI [27]?
A: Its TGI is 1.82E−5.

Q: What about the GI50 ([28]; Homo sapiens) of the same molecule?
A: Its GI50 is 0.467 µM.

Q: And the CC50 [28, 29]?
A: The CC50 was over 100 µM.

Q: What about the TGI [28] of the same molecule?
A: The TGI was 6.50E−5.
